Data set [1] concerns the target T1, δ receptor (mouse vas deferens) (Mus musculus, UniProt P32300). More on the design: from tissue; host or cells: mouse vas deferens (male ICR mice). The conditions noted are these: DPDPE as agonist; data from Ananthan et al. (I); cited from earlier work.
The target in data set [2] is T1, δ receptor (mouse vas deferens). The conditions noted are these: percentage inhibition of contraction at 1 μM; data from Ananthan et al. (I); cited from earlier work.
The target of data set [3] is μ receptor (guinea pig ileum) (Cavia porcellus, UniProt A0ACM8Q262). The conditions noted are these: data from Ananthan et al. (I), cited from earlier work; for antagonist activity GPI (μ) Ke: PL-017 as agonist; for agonist activity GPI (μ) % max resp: percentage inhibition of contraction at 1 μM.
Data set [4] concerns the target T2, opioid κ receptor (Cavia porcellus, UniProt P41144). To be noted: data from Ananthan et al. (I), cited from earlier work.
Data set [5] has as its target T3, opioid μ receptor (Rattus norvegicus, UniProt P33535). The conditions noted are these: data from Ananthan et al. (I), cited from earlier work.
The target in the next data set is human μ receptors (Homo sapiens, UniProt P35372). The conditions noted are these: cloned cells expressing human μ receptors; Xu et al.; cited from earlier work.
The target of data set [6] is T4, κ receptor (Cavia porcellus, UniProt P41144). To be noted: for Ki: read-out: antagonist activity apparent Ki (nM ± SD) κ.
Data set [7] deals with mice. The conditions noted are these: icv or ip administration in mice; Wells et al.; cited from earlier work.
The target in data set [8] is T5, μ receptor (Cavia porcellus, UniProt A0ACM8Q262). To be noted: guinea pig caudate membranes; Xu et al.; cited from earlier work.
Data set [9] addresses T6, δ receptor (Cavia porcellus, UniProt A0A286XTF2). In words: biochemical.
Data set [10] has as its system mice. The conditions noted are these: icv or ip administration in mice; Wells et al.; cited from earlier work. This is another data set of the same source.
The test system of data set [11] is mice. The conditions noted are these: repeated ip injections; Wells et al.; cited from earlier work.
Data set [12] concerns mice. In words: 55° C. tail-flick antinociception test in mice. The conditions noted are these: for naloxone sensitivity: naloxone 10 mg/kg ip, -10 min, yes = greater than 80% reduction in the antinociceptive effect. The procedure:
Analgesic Testing and Assessment of Tolerance Development. The analgesic activity of selected ligands is tested in mice using the 55° C. tail-flick test as previously described. (See Wells et al., supra.) The test compounds are administered by the intracerbroventricular (icv) route. […] To determine whether the analgesic activity of the tested compounds is mediated through opioid receptors, the blockade of antinociceptive activity by pretreatment with naloxone is carried out. The analgesic activity was considered as naloxone sensitive if greater than 80% reduction in the antinociceptive response is observed.
Antinociceptive Studies. Male ICR mice (Harlan) are used for all evaluations. Mice are housed in a temperature and humidity controlled vivarium on a 12:12 h light:dark cycle with unlimited access to food and water prior to the formal procedures. […] The dihydrochloride salt of 7h is dissolved in water and injected in a volume of 5 μL. All other compounds are dissolved in 100% DMSO and injected in a volume of 5 μL. Antinociceptive assays are performed at various times after injection.
Percent antinociception is calculated using the formula: % MPE (maximal possible effect)=100×(test−control)/(cutoff−control) where control is the predrug observation, test is the postdrug observation, and cutoff is the maximal length of stimulus allowed (10 s for 55° C. tail-flick). Antinociceptive A50 values and 95% confidence intervals are determined using linear regression software (FlashCalc). Opioid activity of the test compounds are assessed by pretreating animals with naloxone (10 mg/kg ip, −10 min) followed by an icv injection of an approximate A90 dose of test compound. […] Antinociception is assessed in the 55° C. tail-flick test at 10, 20 and 30 min. A positive response to a fixed dose of naloxone is indicated when greater than 80% reduction in the antinociceptive effect of the agonist is observed.

The target of data set [13] is T2, opioid κ receptor. To be noted: for selectivity ratio κ/δ: ratio of binding Ki values; for Ki: read-out: Ki (nM) ± SEM κ, displacement of [3H]U69,593 (1.2-[…]), guinea pig brain membranes. A general note: Loss of bound radioactivity is the signal in a displacement assay; it reports binding, not function.
Data set [14] has as its target T1, δ receptor (mouse vas deferens). In words: Mouse vas deferens (MVD) smooth muscle bioassay. To be noted: inhibition of electrically stimulated contractions; read-out: agonist activity MVD (δ) IC50. The procedure:
(§1) Bioassays in Smooth Muscle Preparations. The functional activity profiles of selected ligands are also determined in the mouse vas deferens (MVD) and guinea pig ileum (GPI) smooth muscle preparations as described previously.
(§2) The agonist activity is determined by the ability of the compound to inhibit electrically stimulated contractions of the GPI and MVD. The GPI is primarily a μ receptor preparation, even though the ileum does also contain κ receptors. In the MVD, the opioid effects are predominantly mediated through δ receptors, but μ and κ receptors also exist in this tissue.
(§3) Tissues came from male ICR mice weighing 25-40 g and male Hartley guinea pigs weighing 250-500 g. The tissues are tied to gold chain with suture silk, suspended in 20 mL baths containing 37° C. oxygenated (95% O2, 5% CO2) Krebs bicarbonate solution (magnesium free for the MVD), and allowed to equilibrate for 15 min. The tissues are then stretched to optimal length previously determined to be 1 g tension (0.5 g for MVD) and allowed to equilibrate for 15 min. The tissues are stimulated transmurally between platinum wire electrodes at 0.1 Hz, 0.4 ms pulses (2-ms pulses for MVD), and supramaximal voltage. […] Tissues not producing typical results are not used. Experimental compounds were added to the baths in 14-60 μL volumes. Succeeding doses of agonist are added cumulatively to the bath at 3 min intervals to produce a concentration-response curve. The tissues are then washed extensively with fresh buffer until the original contraction height is reestablished. […] The tissues are then washed with fresh buffer for 30 min, and the agonist dose-response curve was repeated. Rightward shifts in the dose-response curves are calculated by dividing the antagonized dose-response curve IC50 value by the unantagonized IC50 value. IC50 values represent the mean of two to four tissues. IC50 estimates and their associated standard errors are determined by using a computerized nonlinear least-squares method. (MINSQ Least Squares Parameter Estimation, version 3.05; MicroMath Inc., 1999.)

Data set [15] has as its target T5, μ receptor. The conditions noted are these: read-out: antagonist activity apparent Ki (nM ± SD) μ; inhibition of DAMGO (10 μM) stimulated [35S]GTP-γ-S binding. (GTPγS is a poorly hydrolysed GTP analogue; its binding reports G protein activation.)
Data set [16] deals with T5, μ receptor. In words: biochemical. The conditions noted are these: read-out: agonist activity Emax % μ.
The target in data set [17] is T4, κ receptor. The experiment in a line: biochemical.
Data set [18] deals with T3, opioid μ receptor. The conditions noted are these: for selectivity ratio μ/δ: ratio of binding Ki values; for Ki: read-out: Ki (nM) ± SEM μ, displacement of [3H]DAMGO (1.4-3.0 nM), rat brain membranes.
The target in data set [19] is T7, opioid δ receptor (Rattus norvegicus, UniProt P33533).
T7 construct: Rat membranes are prepared each day using a partially thawed frozen rat brain; from tissue; host or cells: rat brain membranes
In words: Opioid δ receptor binding, [3H]DADLE displacement in rat brain membranes. The conditions noted are these: displacement of [3H]DADLE (1.3-2.0 nM), rat brain membranes, 100 nM DAMGO to block μ sites; read-out: Ki (nM) ± SEM δ.

Data set [20] addresses T6, δ receptor. To be noted: δ receptors, partial inhibition with increasing concentrations.
Data set [21] has as its target T1, δ receptor (mouse vas deferens). The experiment in a line: Mouse vas deferens (MVD) smooth muscle bioassay. More on the design: from tissue; host or cells: mouse vas deferens (male ICR mice). The procedure: as §1, §2, §3
In data set [22] the test system is mice. The experiment in a line: Tolerance regimen, repeated icv injections, tail-flick assay. To be noted: A90 doses icv twice daily for 3 days, tail-flick on day 4; FIG. 4. (Hot-plate and tail-flick tests time the reaction to a heat stimulus.)
Description: Tolerance Regimen. […] Antinociceptive dose-response curves in the tail-flick assay are generated on the morning of the fourth day using the procedures outlined above.
The target of data set [23] is T7, opioid δ receptor. The conditions noted are these: read-out: Ki (nM) ± SEM δ; [3H]DADLE, rat brain membranes; data from Ananthan et al. (I); cited from earlier work.

The source of these data is patent publication US7541364B2, “Pyridomorphinans, pyridazinomorphinans and use thereof” (priority 2003, dated 2009).

Read-outs that look alike come from different tables or passages of the source. Some results are limits rather than exact numbers.

In general, IC50 refers to the concentration that gives 50% inhibition. For orientation: Emax means the size of the effect at its maximum, as opposed to the concentration needed. The term melting point denotes the temperature, or range, at which the solid turns liquid.

T6 sequence (A0A286XTF2 1-366): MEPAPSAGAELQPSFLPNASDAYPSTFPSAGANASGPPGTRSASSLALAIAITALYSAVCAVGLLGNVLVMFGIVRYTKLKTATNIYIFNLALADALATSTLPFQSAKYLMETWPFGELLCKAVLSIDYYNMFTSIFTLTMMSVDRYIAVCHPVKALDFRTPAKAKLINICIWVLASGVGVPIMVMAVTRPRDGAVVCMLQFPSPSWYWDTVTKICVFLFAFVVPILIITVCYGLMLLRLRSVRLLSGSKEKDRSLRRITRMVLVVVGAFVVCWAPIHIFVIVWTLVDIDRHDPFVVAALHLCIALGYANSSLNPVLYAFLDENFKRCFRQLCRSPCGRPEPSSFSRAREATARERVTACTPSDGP
T1 sequence (P32300 whole entry): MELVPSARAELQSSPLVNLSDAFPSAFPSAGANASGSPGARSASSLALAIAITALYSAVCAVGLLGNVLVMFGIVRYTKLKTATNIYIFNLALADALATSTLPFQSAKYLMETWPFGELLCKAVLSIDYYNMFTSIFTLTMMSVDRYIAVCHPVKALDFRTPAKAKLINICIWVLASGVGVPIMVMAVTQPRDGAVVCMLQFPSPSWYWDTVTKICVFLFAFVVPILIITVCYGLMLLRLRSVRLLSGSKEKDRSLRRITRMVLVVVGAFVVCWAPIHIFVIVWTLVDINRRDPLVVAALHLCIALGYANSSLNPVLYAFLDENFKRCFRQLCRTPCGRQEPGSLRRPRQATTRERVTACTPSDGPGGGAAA
T7 sequence (P33533 whole entry): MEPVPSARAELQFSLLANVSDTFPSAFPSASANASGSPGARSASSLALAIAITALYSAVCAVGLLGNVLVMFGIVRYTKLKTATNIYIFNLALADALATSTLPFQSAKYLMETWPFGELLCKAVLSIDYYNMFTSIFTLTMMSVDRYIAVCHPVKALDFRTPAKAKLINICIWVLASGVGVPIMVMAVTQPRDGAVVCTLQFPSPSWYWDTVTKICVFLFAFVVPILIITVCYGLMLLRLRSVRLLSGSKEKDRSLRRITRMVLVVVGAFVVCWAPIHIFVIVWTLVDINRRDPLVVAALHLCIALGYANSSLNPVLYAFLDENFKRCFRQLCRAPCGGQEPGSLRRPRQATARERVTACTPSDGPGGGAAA
T4 sequence (P41144 whole entry): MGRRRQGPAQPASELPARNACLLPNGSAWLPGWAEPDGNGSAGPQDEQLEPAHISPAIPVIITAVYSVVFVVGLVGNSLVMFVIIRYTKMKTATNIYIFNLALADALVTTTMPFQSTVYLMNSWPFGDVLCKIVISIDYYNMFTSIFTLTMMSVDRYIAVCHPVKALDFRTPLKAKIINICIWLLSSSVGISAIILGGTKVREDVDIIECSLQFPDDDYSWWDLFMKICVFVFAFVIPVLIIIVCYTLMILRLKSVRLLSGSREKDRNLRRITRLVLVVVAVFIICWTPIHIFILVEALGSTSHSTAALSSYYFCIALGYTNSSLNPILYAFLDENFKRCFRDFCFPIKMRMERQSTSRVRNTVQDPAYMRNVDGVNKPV
T2 sequence (P41144 whole entry): as above
T3 sequence (P33535 whole entry): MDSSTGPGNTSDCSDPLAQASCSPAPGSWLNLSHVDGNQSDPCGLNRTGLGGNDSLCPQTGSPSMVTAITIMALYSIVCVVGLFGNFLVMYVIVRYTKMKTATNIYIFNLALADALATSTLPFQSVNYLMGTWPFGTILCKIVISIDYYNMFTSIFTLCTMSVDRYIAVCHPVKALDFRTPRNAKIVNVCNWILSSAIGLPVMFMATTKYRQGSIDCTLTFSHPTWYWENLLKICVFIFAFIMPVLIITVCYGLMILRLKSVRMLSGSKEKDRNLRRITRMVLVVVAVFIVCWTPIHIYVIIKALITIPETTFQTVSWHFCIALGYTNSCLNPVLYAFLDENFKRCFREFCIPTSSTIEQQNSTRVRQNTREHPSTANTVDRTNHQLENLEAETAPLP
T5 sequence (A0ACM8Q262 1-400): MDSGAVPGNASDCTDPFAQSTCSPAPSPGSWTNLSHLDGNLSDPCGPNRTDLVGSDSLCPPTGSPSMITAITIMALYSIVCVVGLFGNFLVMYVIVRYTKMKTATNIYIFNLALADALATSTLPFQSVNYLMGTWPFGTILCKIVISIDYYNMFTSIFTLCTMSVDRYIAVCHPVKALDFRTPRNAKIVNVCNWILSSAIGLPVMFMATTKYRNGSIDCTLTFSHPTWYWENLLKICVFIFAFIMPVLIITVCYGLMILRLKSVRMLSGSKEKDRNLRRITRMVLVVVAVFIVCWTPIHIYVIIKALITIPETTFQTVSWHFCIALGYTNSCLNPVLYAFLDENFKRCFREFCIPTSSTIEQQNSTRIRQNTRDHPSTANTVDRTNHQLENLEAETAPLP
μ receptor (guinea pig ileum), sequence (A0ACM8Q262 1-400): as above
human μ receptors, sequence (P35372 whole entry): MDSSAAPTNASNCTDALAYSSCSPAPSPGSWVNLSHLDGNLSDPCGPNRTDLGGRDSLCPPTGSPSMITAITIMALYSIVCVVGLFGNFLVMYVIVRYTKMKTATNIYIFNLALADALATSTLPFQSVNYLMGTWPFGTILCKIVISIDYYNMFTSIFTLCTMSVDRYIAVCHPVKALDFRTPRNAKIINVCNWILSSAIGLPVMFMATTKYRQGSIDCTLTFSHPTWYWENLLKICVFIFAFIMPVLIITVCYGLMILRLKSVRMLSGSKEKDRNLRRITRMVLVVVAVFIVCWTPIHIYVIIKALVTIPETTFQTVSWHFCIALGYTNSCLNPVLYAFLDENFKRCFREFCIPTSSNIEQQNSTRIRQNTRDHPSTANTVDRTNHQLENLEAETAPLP

`Oc1ccc2c3c1OC1c4ncccc4CC4(O)C(C2)N(CC2CC2)CCC314` (stereo not shown) [2a]: the “antagonist activity MVD (δ) Ke” value in data set [1] is given as 37.0 ± 1.0 nM. In addition, in data set [2], the “agonist activity MVD (δ) % max resp” value is listed as 0%. In [3], the “antagonist activity GPI (μ) Ke” value is listed as 190 ± 65 nM and the “agonist activity GPI (μ) % max resp” value is given as 0%. In addition, the “selectivity ratio κ/δ” value on opioid κ receptor [4] was 11. In addition, on opioid μ receptor [5], the “selectivity ratio μ/δ” value is recorded as 1.9.

`Oc1ccc2c3c1O[C@H]1c4ncc(-c5ccc(Cl)cc5)cc4C[C@@]4(O)[C@@H](C2)N(CC2CC2)CC[C@]314` [2c]: the “μ agonist activity in [35S]GTP-γ-S binding” value on human μ receptors and at μ receptor [8] was “failed to display μ agonist activity” throughout. The values for the Ki on κ receptor [6] and on δ receptor [9] were 11.2 ± 0.44 nM and 0.184 nM, respectively. Further, the “analgesic activity in the tail-flick assay” value in the data set on mice [7] is “partial agonist activity”. Besides, the “agonist activity MVD (δ) % max resp” value in [2] was 21%. The “analgesic activity in the acetic acid writhing assay” value in the data set with mice [10] is “full agonist activity”. The “tolerance to antinociceptive effects” value with mice [11] is “did not produce tolerance”. Further, in the data set on mice [12] (icv, 100 nmol, mouse tail-flick), the “% nociception @ 100 nmol” value came out at 21% @ 100 nmol^f. In the data set on mice [12], the naloxone sensitivity entry was “yes”.

`CN1CC[C@]23c4c5ccc(O)c4O[C@H]2c2ncc(-c4ccc(Cl)c(Cl)c4)cc2C[C@H]3[C@H]1C5` [7j, 5′-(3,4-Dichlorophenyl)-6,7-didehydro-4,5α-epoxy-3-hydroxy-17-methylpyrido[2′,3′:6,7]morphinan] returned a melting point of 184 to 186 °C. In addition, on κ receptor [6], the “maximum inhibition at the κ receptors” value is 66±6%. On opioid κ receptor [13], the “selectivity ratio κ/δ” value was determined as 75 and the Ki came to 278 ± 7 nM. The IC50 in data set [14] was 489 ± 164 nM. For the same compound, the Ki at μ receptor [15] was above 1000 nM. Also, the Emax at μ receptor [16] was 63 ± 3%. Moreover, the concentration for half-maximal inhibition (IC50) against δ receptor [9] came out at 74 nM. The compound also yielded a concentration for half-maximal inhibition (IC50) at κ receptor [17] of 4770 nM. Besides, on opioid μ receptor [18], the “selectivity ratio μ/δ” value was 25 and the Ki was determined as 93 ± 4 nM. The Ki at opioid δ receptor [19] amounted to 3.7 ± 0.14 nM. Besides, at δ receptor [20], the “maximum percentage inhibition of SNC-80 stimulated [35S]GTP-γ-S binding” value was found to be 58±3%. Also, the “% nociception @ 300 nmol” value with mice [12] (icv, 300 nmol, mouse tail-flick) amounted to 44% @ 300 nmol. Also, the “factor that prevented determining the A50 value” in the data set on mice [12] (icv, mouse tail-flick) is given as “lack of efficacy”.

In the case of `CN1CC[C@]23c4c5ccc(O)c4O[C@H]2c2ncc(-c4ccc(Cl)cc4)cc2C[C@H]3[C@H]1C5` [7h, 5′-(4-Chlorophenyl)-6,7-didehydro-4,5α-epoxy-3-hydroxy-17-methylpyrido[2′,3′:6,7]morphinan], the Kb in [21] is 21.9 ± 2.14 nM. Also, the Ki was 333 ± 25 nM at κ receptor [6]; 78 ± 13 nM at opioid κ receptor [13]; 11 nM at δ receptor [9]; 148 ± 9.5 nM on opioid μ receptor [18]; 4.4 ± 0.2 nM at opioid δ receptor [19]. For the same compound, the “shift in antinociceptive A50 value after repeated injections” value in the data set with mice [22] is listed as “less than 1.1 fold”. Besides, the “selectivity ratio κ/δ” value on opioid κ receptor [13] stood at 18. For the same compound, the IC50 in [14] was 565 ± 12.7 nM. Also, at μ receptor [16], the maximal effect (Emax) was found to be 48 ± 2%. Moreover, on opioid μ receptor [18], the “selectivity ratio μ/δ” value was found to be 34. In the data set with mice [12] (icv, mouse tail-flick, at time of peak drug effect), this compound yielded an A50 of 42.8 nmol. The “A50 potency value in the tail flick assay” value with mice [12] (mice, full agonist efficacy, FIG. 2) is reported as 21.9. In the data set on mice [12], the naloxone sensitivity entry is recorded as “yes”. Besides, the “blockade of antinociceptive activity by μ selective antagonist β-FNA” value with mice [12] (β-FNA 19 nmol, icv, -24 h, FIG. 3) was “completely blocked”.

In the case of `Oc1ccc2c3c1OC1c4ncc(-c5ccccc5)cc4CC4(O)C(C2)N(CC2CC2)CCC314` (stereo not shown) [2b], the “antagonist activity MVD (δ) Ke” value in [1] was 3.7 ± 1.0 nM. In addition, in data set [2], the “agonist activity MVD (δ) % max resp” value was 4.7%. Also, in [3], the “antagonist activity GPI (μ) Ke” value is reported as 43 ± 6.6 nM. For the same compound, in [3], the “agonist activity GPI (μ) % max resp” value was 0%. Also, the Ki is 0.87 ± 0.07 nM at opioid δ receptor [23]; 17.6 ± 1.6 nM on opioid κ receptor [4] (read-out: Ki (nM) ± SEM κ, [3H]U69,593, guinea pig brain membranes); 13.5 ± 1 nM at opioid μ receptor [5] (read-out: Ki (nM) ± SEM μ, [3H]DAMGO, rat brain membranes). Besides, the “selectivity ratio κ/δ” value at opioid κ receptor [4] is on record as 20. For the same compound, at opioid μ receptor [5], the “selectivity ratio μ/δ” value is listed as 16.
